Laboratory results: ChEMBL document CHEMBL1139867, “Discovery of the HCV NS3/4A protease inhibitor (1R,5S)-N-[3-amino-1-(cyclobutylmethyl)-2,3-dioxopropyl]-3- [2(S)-[[[(1,1-dimethylethyl)amino]carbonyl]amino]-3,3-dimethyl-1-oxobutyl]- 6,6-dimethyl-3-azabicyclo[3.1.0]hexan-2(S)-carboxamide (Sch 503034) II. Key steps in structure-based optimization” (J Med Chem, 2007)

biological target: Hepatitis C virus serine protease, NS3/NS4A (Hepatitis C virus, UniProt A3EZI9+D2K2A8); test: Inhibition of HCV genotype H 1a NS3/4A protease; format: protein-complex assay
Sequence (D2K2A8 whole entry): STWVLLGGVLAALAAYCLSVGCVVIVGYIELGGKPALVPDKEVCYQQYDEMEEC
Sequence (A3EZI9 whole entry): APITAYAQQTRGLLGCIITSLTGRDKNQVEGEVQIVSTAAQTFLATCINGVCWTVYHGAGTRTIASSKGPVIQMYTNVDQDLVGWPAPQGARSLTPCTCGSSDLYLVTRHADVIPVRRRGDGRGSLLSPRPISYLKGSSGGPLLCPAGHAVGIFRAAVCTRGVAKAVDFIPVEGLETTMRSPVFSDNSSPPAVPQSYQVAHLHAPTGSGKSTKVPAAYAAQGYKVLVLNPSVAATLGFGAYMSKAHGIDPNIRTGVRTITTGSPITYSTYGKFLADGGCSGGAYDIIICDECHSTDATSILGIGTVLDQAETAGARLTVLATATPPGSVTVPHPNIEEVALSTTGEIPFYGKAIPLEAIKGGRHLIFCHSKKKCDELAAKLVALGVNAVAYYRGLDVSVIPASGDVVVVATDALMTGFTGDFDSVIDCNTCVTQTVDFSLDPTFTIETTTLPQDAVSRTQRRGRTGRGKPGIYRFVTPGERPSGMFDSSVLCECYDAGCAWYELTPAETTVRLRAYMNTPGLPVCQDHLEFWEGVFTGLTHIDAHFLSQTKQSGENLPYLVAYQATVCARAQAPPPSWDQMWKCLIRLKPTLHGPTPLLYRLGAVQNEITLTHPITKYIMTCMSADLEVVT

`CC(C)(C)NC(=O)NC(C(=O)N1C[C@H]2[C@@H](C1C(=O)N[C@@H](CC1CC1)C(=O)C(N)=O)C2(C)C)C(C)(C)C` (stereo partly drawn) and `CC(C)(C)NC(=O)NC(C(=O)N1C[C@H]2[C@@H](C1C(=O)N[C@@H](CC1CCC1)C(=O)C(N)=O)C2(C)C)C(C)(C)C` (stereo partly drawn) are within 1.5-fold of each other in Ki: 13 nM for the first, 14 nM for the second.

First: CC(C)(C)NC(=O)NC(C(=O)N1C[C@@H]2OC(C)(C)C[C@@H]2C1C(=O)N[C@@H](CC1CCC1)C(=O)C(N)=O)C(C)(C)C (stereo partly drawn)
Second: CC(C)(C)NC(=O)NC(C(=O)N1C[C@@H]2OC(C)(C)[C@@H]2C1C(=O)N[C@@H](CC1CC1)C(=O)C(N)=O)C(C)(C)C (stereo partly drawn)
The Ki of the first is 1.9-fold lower: 500 nM for the first, 960 nM for the second.

Compared with `CC(C)(C)NC(=O)NC(C(=O)N1C[C@H]2[C@@H](C1C(=O)N[C@@H](CC1CCC1)C(=O)C(N)=O)C2(F)F)C(C)(C)C` (stereo partly drawn), `CC(C)(C)NC(=O)NC(C(=O)N1C[C@H]2[C@@H](C1C(=O)N[C@@H](CC1CCC1)C(=O)C(N)=O)C2(Cl)Cl)C(C)(C)C` (stereo partly drawn) is 7.4-fold lower in Ki: 140 nM for the first, 19 nM for the second. The second binds more tightly here.

Going from `CC(C)C[C@H](NC(=O)C1[C@@H]2[C@H](CN1C(=O)C(NC(=O)OC(C)(C)C)C1CCCCC1)C2(C)C)C(=O)C(N)=O` (stereo partly drawn) to `CCC(NC(=O)C1[C@@H]2[C@H](CN1C(=O)C(NC(=O)OC(C)(C)C)C1CCCCC1)C2(C)C)C(=O)C(N)=O` (stereo partly drawn), the Ki rises from 400 nM to 740 nM (1.9-fold). The first binds more tightly here.

Compared with `CC(C)(C)NC(=O)NC(C(=O)N1C[C@H]2[C@@H](C1C(=O)NC(C(=O)C(N)=O)C1CCCC1)C2(C)C)C(C)(C)C` (stereo partly drawn), `CC(C)(C)NC(=O)NC(C(=O)N1C[C@H]2[C@@H](C1C(=O)NC(C(=O)C(N)=O)C1CCC1)C2(C)C)C(C)(C)C` (stereo partly drawn) is 18-fold lower in Ki: 1800 nM for the first, 100 nM for the second.

`CC(C)(C)C[C@H](NC(=O)C1[C@@H]2[C@H](CN1C(=O)C(NC(=O)OC(C)(C)C)C(C)(C)C)C2(C)C)C(=O)C(N)=O` (stereo partly drawn) and `CC(C)(C)OC(=O)NC(C(=O)N1C[C@H]2[C@@H](C1C(=O)NC(C(=O)C(N)=O)C(C)(C)C)C2(C)C)C(C)(C)C` (stereo partly drawn) cannot be ordered by Ki: over 3300 nM for the first, over 69000 nM for the second.

Compared with `CCC[C@H](NC(=O)C1[C@@H]2[C@H](CN1C(=O)C(NC(=O)OC(C)(C)C)C1CCCCC1)C2(C)C)C(=O)C(N)=O` (stereo partly drawn), `CCC[C@H](NC(=O)C1[C@@H]2[C@H](CN1C(=O)C(NC(=O)NC(C)(C)C)C1CCCCC1)C2(C)C)C(=O)C(N)=O` (stereo partly drawn) is 1.9-fold lower in Ki: 100 nM for the first, 54 nM for the second.

First: CCC[C@H](NC(=O)C1[C@@H]2[C@H](CN1C(=O)C(NC(=O)OC(C)(C)C)C(C)(C)C)C2(C)C)C(=O)C(N)=O (stereo partly drawn)
Second: CCCC[C@H](NC(=O)C1[C@@H]2[C@H](CN1C(=O)C(NC(=O)OC(C)(C)C)C(C)(C)C)C2(C)C)C(=O)C(N)=O (stereo partly drawn)
The Ki of the first is 1.6-fold lower: 220 nM for the first, 360 nM for the second.

`CC(C)(C)OC(=O)NC(C(=O)N1C[C@H]2[C@@H](C1C(=O)N[C@@H](CC1CC1)C(=O)C(N)=O)C2(C)C)C1CCCCC1` (stereo partly drawn) and `CC(C)(C)OC(=O)NC(C(=O)N1C[C@H]2[C@@H](C1C(=O)N[C@@H](CC1CCC1)C(=O)C(N)=O)C2(C)C)C1CCCCC1` (stereo partly drawn) are the same in Ki: 25 nM for the first, 25 nM for the second.

Compared with `CC(C)(C)NC(=O)NC(C(=O)N1C[C@H]2[C@@H](C1C(=O)N[C@@H](CC1CC1(F)F)C(=O)C(N)=O)C2(C)C)C(C)(C)C` (stereo partly drawn), `CC(C)(C)NC(=O)NC(C(=O)N1C[C@H]2[C@@H](C1C(=O)N[C@@H](CC1CC(F)(F)C1)C(=O)C(N)=O)C2(C)C)C(C)(C)C` (stereo partly drawn) is 2.3-fold higher in Ki: 50 nM for the first, 115 nM for the second.

Compared with `CC(C)C[C@H](NC(=O)C1[C@@H]2[C@H](CN1C(=O)C(NC(=O)OC(C)(C)C)C(C)(C)C)C2(C)C)C(=O)C(N)=O` (stereo partly drawn), `CC(C)(C)NC(=O)NC(C(=O)N1C[C@H]2[C@@H](C1C(=O)NC(C(=O)C(N)=O)C1CC1)C2(C)C)C(C)(C)C` (stereo partly drawn) is 3.3-fold higher in Ki: 480 nM for the first, 1600 nM for the second.

First: CC(C)OC(=O)NC(C(=O)N1C[C@H]2[C@@H](C1C(=O)N[C@@H](CC1CC1)C(=O)C(N)=O)C2(C)C)C1CCCCC1 (stereo partly drawn)
Second: COC(=O)NC(C(=O)N1C[C@H]2[C@@H](C1C(=O)N[C@@H](CC1CC1)C(=O)C(N)=O)C2(C)C)C1CCCCC1 (stereo partly drawn)
The Ki of the first is 13-fold lower: 60 nM for the first, 800 nM for the second. The first binds more tightly here.

First: CC(C)[C@H](NC(=O)NC(C)(C)C)C(=O)N1C[C@H]2[C@@H](C1C(=O)N[C@@H](CC1CC1)C(=O)C(N)=O)C2(C)C (stereo partly drawn)
Second: CC(=O)N[C@H](C(=O)NC(C(=O)N1C[C@H]2[C@@H](C1C(=O)N[C@@H](CC1CCC1)C(=O)C(N)=O)C2(C)C)C(C)(C)C)C(C)C (stereo partly drawn)
The Ki of the first is 2.6-fold higher: 100 nM for the first, 38 nM for the second.

First: CCOC(=O)NC(C(=O)N1C[C@H]2[C@@H](C1C(=O)N[C@@H](CC1CC1)C(=O)C(N)=O)C2(C)C)C1CCCCC1 (stereo partly drawn)
Second: CC(C)(C)NC(=O)NC(C(=O)N1C[C@H]2[C@@H](C1C(=O)N[C@@H](CC1CC1)C(=O)C(N)=O)C2(C)C)C1CCCCC1 (stereo partly drawn)
The Ki of the first is 4.6-fold higher: 230 nM for the first, 50 nM for the second. The second binds more tightly here.

Compared with `CC(C)(C)OC(=O)NC(C(=O)N1C[C@H]2[C@@H](C1C(=O)N[C@@H](CC1CCCC1)C(=O)C(N)=O)C2(C)C)C1CCCCC1` (stereo partly drawn), `CC(C)(C)OC(=O)NC(C(=O)N1C[C@H]2[C@@H](C1C(=O)N[C@@H](CC1CCCCC1)C(=O)C(N)=O)C2(C)C)C1CCCCC1` (stereo partly drawn) is higher in Ki: 150 nM for the first, over 12000 nM for the second. The first binds more tightly here.

First: CC(C)C[C@H](NC(=O)C(NC(=O)OC(C)(C)C)C(C)(C)C)C(=O)N[C@@H](CC1CCC1)C(=O)C(N)=O (stereo partly drawn)
Second: CC(C)(C)NC(=O)NC(C(=O)N1CCC[C@H]1C(=O)N[C@@H](CC1CCC1)C(=O)C(N)=O)C(C)(C)C (stereo partly drawn)
The Ki of the first is 3-fold higher: 15000 nM for the first, 5000 nM for the second. The second binds more tightly here.

With `CC(=O)N[C@H](C(=O)NC(C(=O)N1C[C@H]2[C@@H](C1C(=O)N[C@@H](CC1CC1)C(=O)C(N)=O)C2(C)C)C1CCCCC1)C(C)C` (stereo partly drawn) the Ki was 68 nM.
